Test results: publication PMC10818546, “CYP1-Activation and Anticancer Properties of Synthetic Methoxylated Resveratrol Analogues” (Molecules, 2024)
Like-named read-outs stand apart in the source and are kept apart here.

What was measured:
MCF7 = assay: MTT cytotoxicity assay, MCF7 cells (uninduced); assay type: cell-based, human; details: read-out: IC50 MCF7
Method: (§1) The antiproliferative activity of the resveratrol analogues was investigated using a human breast cell line panel, which has been characterised for CYP1 expression in our laboratories. IC50 values for both cis- and trans-isomers were determined using a standard 3-[4,5-dimethylthiazol-2-yl]-2,5-diphenyl tetrazolium bromide (MTT) cell viability assay and are shown in Table 1 (trans-stilbene analogues) and Table 2 (cis-stilbene analogues).
(§2) MCF7 cells are both ER positive and Ah receptor positive and have been well documented for their CYP1 expression, and it is known that treatment with TCDD elevates CYP1A1 and CYP1B1 expression. The cells were treated with DMSO (0.1%) for 24 h for constitutive expression, whereas for inducible CYP1 expression, the cells were treated with TCDD (10 nM) for 24 h.
(§3) A standard MTT (3-[4,5-dimethylthiazol-2-yl]-2,5-diphenyl tetrazolium bromide) cell viability assay was employed to evaluate the cytotoxicity of the stilbenes prepared. The MTT assay is a rapid quantitative spectrophotometric method for determining cell growth (viability) due to necrosis or apoptosis in monolayer-cultured cell lines in response to external factors. It is widely employed to evaluate the cytotoxicity of potential medicinal agents.
(§4) MCF7 cells were grown in RPMI-1640 medium with phenol red and 10% (v/v) heat-inactivated (heated to 56 °C for 45 min) foetal calf serum. MDA-468 cells were grown in RPMI-1640 medium with 10% (v/v) heat-inactivated foetal calf serum and L-glutamine (2 mM) without phenol red. MCF-10A cells were grown in Dulbecco’s modified Eagle’s medium/ Ham’s F-12 medium (1:1) with 5% (v/v) heat-inactivated foetal calf serum, epidermal growth factor (20 ng/mL), insulin ([…]) and hydrocortisone (500 ng/mL). Cells were maintained at 37 °C, 5% CO2/95% air with 100% humidity and passaged every 2–3 days using trypsin EDTA solution (0.25% w/v). Adhered cells at sub confluence were harvested for experimental use.
(§5) Aliquots of cell suspensions (100 µL at 2 × 10^3 cells per ml) were dispensed into sterile 96-well microtiter flat-bottomed plates. For the MDA468 and MCF10A cell lines, the plates were incubated at 37 °C, 5% CO2/95% air with 100% humidity for 24 h prior to the addition of test compounds. For MCF7 cells, after allowing approximately 4 h for cells to adhere, 100 µL of medium containing TCDD (from 100 mM stock in DMSO) or medium with 0.2% (v/v) DMSO was added to give a final concentration of 10 nM TCDD and 0.1% (v/v) DMSO. After 24 h, the medium was aspirated and replaced with fresh medium (100 µL) before the addition of test compounds.
(§6) Then, 100 µL aliquots of test compounds were added within 30 min into the wells from a 100 mM stock solution in DMSO and serially diluted to give final concentrations of […], 0.01, 0.003, 0.001 and 0.0003 µM. […] The cells were allowed to grow for 96 h at 5% CO2, 37 °C, to give 80–90% confluence in the control wells, after which 50 µL of 2 mg/mL MTT (final concentration 0.4 mg/mL) in sterile phosphate buffer was added to each well and the plates were further incubated for 2 h. All medium was aspirated and the formazan precipitate generated by viable cells was solubilised by 150 µL of DMSO. All the plates were vortexed and the absorbance at 540 nm was determined using a SpectraMax M5 plate reader (Molecular Devices, Wokingham, UK).
(§7) Results were expressed as a percentage of the control value versus the negative logarithm of the molar drug concentration range using GraphPad Prism (Version 5.00). Relative toxicities of each compound within each cell line were expressed as 50% of growth inhibition (IC50). All determinations were carried out in quadruplicate.

MCF7 (TCDD) = assay: MTT cytotoxicity assay, TCDD-induced MCF7 cells; assay type: cell-based, human; details: for AF = activation factor = IC50 MCF7/MCF7 (TCDD): ratio of IC50 values
Method: as §1, §2, §3, §4, §5, §6, §7

MCF10A = assay: MTT cytotoxicity assay, MCF10A non-tumour control cells; assay type: cell-based; details: Homo sapiens, MCF-10A, read-out: IC50 MCF10A
Method: as §1
MCF10A cells are non-tumourigenic human mammary epithelial in origin which have been spontaneously immortalised without chemical intervention. CYP1 activity in MCF10A cells is negligible. […] Thus, MCF10A cell line is commonly used as a control in cytotoxicity assays.
as §3, §4, §5, §6, §7

MDA468 = assay: MTT cytotoxicity assay, MDA468 cells; assay type: cell-based, human; details: for IC50: Homo sapiens, read-out: IC50 MDA468; for TS = tumour selectivity = IC50 MCF10A/IC50 MDA468: ratio of IC50 values
Method: as §1
MDA468 cells represent an aggressive multi-drug-resistant tumour type and are ER negative but are aryl hydrocarbon (Ah) receptor positive in the presence of TCDD [46].
as §3, §4, §5, §6, §7

[1] = Homo sapiens, MCF7, 96 h, MTT assay, 96 h incubation, 37 °C, means of quadruplicate
[2] = Homo sapiens, MCF7, MTT assay, 96 h incubation, cells induced with 10 nM TCDD for 24 h, read-out: IC50 MCF7 (TCDD)
[3] = 96 h, MTT assay, 96 h incubation, non-tumour control cells
[4] = Homo sapiens, MCF7, MTT assay, 96 h incubation, 37 °C, means of quadruplicate
[5] = MTT assay, 96 h incubation, non-tumour control cells

Row | SMILES | IC50 (MCF7; [1]) [µM] | IC50 (MCF7 (TCDD); [2]) [µM] | IC50 (MCF10A; [3]) [µM] | IC50 (MDA468; MTT assay, 96 h incubation) [µM] | TS = tumour selectivity = IC50 MCF10A/IC50 MDA468 (MDA468) | IC50 (MCF7; [4]) [µM] | IC50 (MCF10A; [5]) [µM] | further results
1 | COc1ccc(/C=C\c2cc(OC)c(OC)c(OC)c2)cc1O [CA4, combretastatin A4, reference compound] | 0.002 | 0.002 | 0.002 | 0.003 | 0.7 | – | – | –
2 | COc1ccc(/C=C/c2ccc(OC)cc2)cc1 [DMU205] | 28 | 28 | 100 | 100 | 1 | – | – | –
3 | COc1ccc(/C=C\c2cc(OC)cc(OC)c2)cc1 [DMU210] | – | 24 | – | > 100 | – | 26 | > 100 | –
4 | COc1ccc(/C=C\c2cc(OC)c(OC)c(OC)c2)cc1 [DMU213] | – | – | – | – | four | – | – | IC50 (MCF7; Homo sapiens, MCF7, 96 h): 2.5 µM; IC50 (MCF7 (TCDD); Homo sapiens, MCF7, read-out: IC50 MCF7 (TCDD)): 0.44 µM; IC50 (MCF10A; 96 h): 2 µM; fold less toxic to MDA-468 compared to DMU212 (MDA468): 500 fold; IC50 (MDA468; 96 h): 0.5 µM; TS = tumour selectivity = IC50 MCF10A/IC50 MDA468 (MDA468; listed as 213): 4
5 | COc1ccc(/C=C\c2cccc(C)c2)cc1 [DMU216C] | 26 | 30 | > 100 | > 100 | – | – | – | –
6 | COc1ccc(/C=C/c2cc(OC)c(OC)c(OC)c2)c(OC)c1 [DMU219] | 1.7 | 1.4 | 1.4 | 0.8 | 2 | – | – | –
7 | COc1cc(/C=C/c2ccc3c(c2)OCO3)cc(OC)c1OC [DMU220] | – | 2.3 | – | 0.99 | four | 3.4 | 3.9 | TS = tumour selectivity = IC50 MCF10A/IC50 MDA468 (MDA468; listed as 220): 4
8 | COc1ccc(/C=C\c2cc(OC)c(OC)c(OC)c2)c(OC)c1 [DMU222] | 0.06 | 0.005 | 0.06 | 0.005 | 10 | – | – | IC50 (MCF7; MTT assay, 96 h incubation, 37 °C, means of quadruplicate): 0.07 µM; IC50 (MCF7 (TCDD); MTT assay, 96 h incubation, cells induced with 10 nM TCDD for 24 h, read-out: IC50 MCF7 (TCDD)): 0.007 µM
9 | COc1ccc(CCc2cc(OC)c(OC)c(OC)c2)cc1 [DMU224] | 0.06 | 0.06 | 0.06 | 0.005 | – | – | – | –
10 | COc1ccc(/C=C\c2cccc(OC)c2)cc1 [DMU241C] | – | 26 | – | > 100 | – | 29 | > 100 | –
11 | COc1ccc(/C=C/c2cccc(OC)c2)cc1 [DMU241] | – | 24 | – | > 100 | – | 27 | > 100 | –
12 | CCOc1ccc(/C=C/c2cc(OC)c(OC)c(OC)c2)cc1 [DMU260] | – | 5 | – | 1.8 | two | 5 | 3.7 | AF = activation factor = IC50 MCF7/MCF7 (TCDD) (MCF7 (TCDD)): one; TS = tumour selectivity = IC50 MCF10A/IC50 MDA468 (MDA468; listed as 260): 2
13 | CCOc1ccc(/C=C\c2cc(OC)c(OC)c(OC)c2)cc1 [DMU261] | – | 0.13 | – | 0.07 | 0.9 | 0.04 | 0.06 | –
14 | COc1ccc(/C=C\c2ccc(OC)cc2)cc1 [DMU265] | 25 | 20 | > 100 | > 100 | – | – | – | –
15 | COc1ccc(/C=C/c2cc(OC)cc(OC)c2)cc1 [DMU271] | – | 14 | – | > 100 | – | 14 | > 100 | –
16 | COc1cc(/C=C/c2ccc(O)cc2)cc(OC)c1OC [DMU281] | 30 | 28 | 23 | 3.6 | 6 | – | – | –
17 | COc1ccc(/C=C/c2cc(OC)c(O)c(OC)c2)cc1 [DMU291] | 20 | 20 | 100 | 1 | 100 | – | – | –
18 | COc1ccc(/C=C/c2cc(OC)c(O)c(OC)c2)cc1O [DMU293] | 100 | 100 | 110 | 10 | 10 | – | – | –
19 | COc1cc(/C=C/c2ccc(O)cc2)cc(OC)c1O [DMU295] | 50 | 4.2 | 51 | 5.1 | 10 | – | – | –
20 | COc1cc(/C=C\c2ccc3c(c2)OCO3)cc(OC)c1OC [DMU299] | – | 0.05 | – | 20 | one | 0.05 | 20 | AF = activation factor = IC50 MCF7/MCF7 (TCDD) (MCF7 (TCDD)): one; TS = tumour selectivity = IC50 MCF10A/IC50 MDA468 (MDA468; listed as 299): 1
21 | COc1cc(/C=C/c2ccc(I)cc2)cc(OC)c1OC [DMU509] | 15 | 15 | 13 | 13 | 1 | – | – | –
22 | COc1cc(/C=C\c2ccc(I)cc2)cc(OC)c1OC [DMU510] | 0.06 | 0.06 | 0.01 | 0.006 | 2 | – | – | –
23 | COc1ccc(/C=C/c2ccc(OC)c(OC)c2OC)cc1 [DMU547] | – | 1 | – | 4.5 | 4 | 80 | 20 | –
24 | COc1ccc(/C=C\c2ccc(OC)c(OC)c2OC)cc1 [DMU548] | – | 7.1 | – | 30 | – | 8 | 100 | –
25 | COc1cc(/C=C/c2ccc(Cl)cc2)cc(OC)c1OC [DMU555] | – | 100 | – | 12 | 0.7 | 100 | 8 | –
26 | COc1cc(/C=C\c2ccc(Cl)cc2)cc(OC)c1OC [DMU556] | – | 0.8 | – | 7 | 5 | 0.8 | 35 | –
27 | COc1cc(/C=C/c2ccc(Br)cc2)cc(OC)c1OC [DMU557] | – | 8 | – | 7 | 3 | 7 | 20 | –
28 | COc1cc(/C=C\c2ccc(Br)cc2)cc(OC)c1OC [DMU558] | – | 0.05 | – | 0.04 | 1 | 0.08 | 0.05 | –
29 | COc1ccc2cc(/C=C/c3cc(OC)c(OC)c(OC)c3)ccc2c1 [DMU567] | 100 | 42 | 0.11 | 0.04 | three | – | – | TS = tumour selectivity = IC50 MCF10A/IC50 MDA468 (MDA468; listed as 567): 3
